Publication PMC3692398 (Biochemical pharmacology, 2013)
Read-outs that look alike come from different tables or passages of the source.

Key:
[1] = biological target: T1, h5-HT2A receptor (Homo sapiens, UniProt P28223); conditions: data not shown
[2] = biological target: T1, h5-HT2A receptor; test: [125I]DOI binding, HEK-h5-HT2A
[3] = biological target: T1, h5-HT2A receptor; test: Inhibition of 5-HT-stimulated IP-1 formation; type: cell-based; conditions: for h5-HT2A Inhibition of 5-HT-stimulated IP-1 formation % maximum inhibition ± sem: 100 nM 5-HT, normalized to maximal inhibition by ketanserin (10 µM)
[4] = biological target: T2, hVMAT2 (Homo sapiens, UniProt Q05940); test: Inhibition of [3H]DHTB binding, HEK-hVMAT2 membranes
[5] = biological target: T3, hSERT (Homo sapiens, UniProt P31645); test: Inhibition of [3H]5-HT uptake, intact HEK-hSERT cells; type: cell-based
[6] = biological target: T3, hSERT; test: Superfusion release of preloaded [3H]5-HT from HEK-hSERT cells; type: cell-based
[7] = biological target: T4, hNET (Homo sapiens, UniProt P23975); test: Superfusion release of preloaded [3H]NE from HEK-hNET cells; type: cell-based; conditions: for % maximum release ± sem, hNET [3H]NE: relative to maximal AUC induced by METH (0.3 or 1 µM)
[8] = biological target: T5, hDAT (Homo sapiens, UniProt Q01959); test: Inhibition of [3H]DA uptake, intact HEK-hDAT cells; type: cell-based
[9] = biological target: T6, h5-HT1A receptor (Homo sapiens, UniProt P08908); test: Stimulation of [35S]GTPγS binding, HEK-h5-HT1A membranes; type: biochemical; conditions: for Emax: read-out: h5-HT1A Stimulation of [35S]GTPγS binding % maximum stimulation ± sem
T6 sequence (P08908 1-422): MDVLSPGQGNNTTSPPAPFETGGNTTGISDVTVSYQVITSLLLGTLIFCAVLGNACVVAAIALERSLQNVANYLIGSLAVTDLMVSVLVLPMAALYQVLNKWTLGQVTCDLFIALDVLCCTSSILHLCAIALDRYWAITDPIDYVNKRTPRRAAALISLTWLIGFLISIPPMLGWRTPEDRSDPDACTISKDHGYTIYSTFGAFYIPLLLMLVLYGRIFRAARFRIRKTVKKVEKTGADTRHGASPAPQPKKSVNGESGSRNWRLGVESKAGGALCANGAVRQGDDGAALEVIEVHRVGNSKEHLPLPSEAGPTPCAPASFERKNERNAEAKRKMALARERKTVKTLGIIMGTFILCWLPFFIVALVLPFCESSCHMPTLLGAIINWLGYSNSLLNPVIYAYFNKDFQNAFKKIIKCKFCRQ

[10] = biological target: hSigma1 receptor (Homo sapiens, UniProt Q99720); test: [3H]; type: binding; conditions: Inhibition of [3H]pentazocine binding Ki ± sem, hSigma1
[11] = biological target: T2, hVMAT2; test: Inhibition of [3H]5-HT uptake, HEK-hVMAT2 membrane preparation; type: biochemical
[12] = biological target: T5, hDAT; test: Inhibition of [125I]RTI-55 binding, HEK-hDAT membranes
[13] = biological target: T3, hSERT; test: Inhibition of [125I]RTI-55 binding, HEK-hSERT membranes
[14] = biological target: T6, h5-HT1A receptor; test: [3H]8-OH-DPAT binding, HEK-h5-HT1A
[15] = biological target: T4, hNET; test: biochemical; type: binding
[16] = blood from heart, periphery, and femoral veins; postmortem cases; ref [32];[33];[34]; cited from earlier work
[17] = biological target: T7, h5-HT2C receptor (Homo sapiens, UniProt P28335); test: biochemical; type: binding
T7 sequence (P28335 33-458): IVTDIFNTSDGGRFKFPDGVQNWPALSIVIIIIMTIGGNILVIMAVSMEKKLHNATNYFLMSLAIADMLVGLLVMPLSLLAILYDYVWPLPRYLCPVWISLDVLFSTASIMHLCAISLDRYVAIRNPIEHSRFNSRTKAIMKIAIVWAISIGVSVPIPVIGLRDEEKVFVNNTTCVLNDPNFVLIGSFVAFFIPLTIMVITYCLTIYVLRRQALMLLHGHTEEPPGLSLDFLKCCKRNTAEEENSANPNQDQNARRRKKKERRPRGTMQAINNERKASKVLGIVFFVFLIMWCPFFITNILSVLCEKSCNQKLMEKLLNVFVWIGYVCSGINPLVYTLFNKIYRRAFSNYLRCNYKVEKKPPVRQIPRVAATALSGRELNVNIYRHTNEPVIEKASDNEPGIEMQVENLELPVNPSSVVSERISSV

[18] = biological target: T4, hNET; test: cell-based; type: cell-based
[19] = biological target: T7, h5-HT2C receptor; test: Inhibition of 5-HT-stimulated IP-1 formation; type: cell-based; conditions: for h5-HT2C Inhibition of 5-HT-stimulated IP-1 formation % maximum inhibition ± sem: 100 nM 5-HT, normalized to maximal inhibition by SB242084 (1 µM)
[20] = biological target: T2, hVMAT2; test: Superfusion release of preloaded [3H]NE from HEK-hVMAT2 cells; type: cell-based
[21] = biological target: T5, hDAT; test: Superfusion release of preloaded [3H]DA from HEK-hDAT cells; type: cell-based; conditions: for time of peak/maximal [3H]DA release after addition of drug: 4-FMC 10 µM to 300 µM, mephedrone 30 µM, methylone 100 µM
[22] = biological target: human DA D2 receptor (Homo sapiens, UniProt P14416); type: binding
human DA D2 receptor, sequence (P14416 whole entry): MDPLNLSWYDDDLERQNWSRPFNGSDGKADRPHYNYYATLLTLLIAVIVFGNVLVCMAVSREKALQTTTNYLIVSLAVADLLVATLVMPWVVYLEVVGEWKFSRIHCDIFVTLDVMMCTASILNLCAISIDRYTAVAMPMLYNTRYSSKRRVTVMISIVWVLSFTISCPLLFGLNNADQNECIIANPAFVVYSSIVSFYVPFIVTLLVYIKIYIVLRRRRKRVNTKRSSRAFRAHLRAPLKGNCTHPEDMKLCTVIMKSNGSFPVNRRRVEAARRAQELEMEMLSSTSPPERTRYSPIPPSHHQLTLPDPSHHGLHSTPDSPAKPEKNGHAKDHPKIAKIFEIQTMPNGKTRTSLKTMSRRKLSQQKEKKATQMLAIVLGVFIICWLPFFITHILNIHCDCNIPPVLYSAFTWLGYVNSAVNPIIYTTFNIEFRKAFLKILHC

T1 sequence (P28223 whole entry): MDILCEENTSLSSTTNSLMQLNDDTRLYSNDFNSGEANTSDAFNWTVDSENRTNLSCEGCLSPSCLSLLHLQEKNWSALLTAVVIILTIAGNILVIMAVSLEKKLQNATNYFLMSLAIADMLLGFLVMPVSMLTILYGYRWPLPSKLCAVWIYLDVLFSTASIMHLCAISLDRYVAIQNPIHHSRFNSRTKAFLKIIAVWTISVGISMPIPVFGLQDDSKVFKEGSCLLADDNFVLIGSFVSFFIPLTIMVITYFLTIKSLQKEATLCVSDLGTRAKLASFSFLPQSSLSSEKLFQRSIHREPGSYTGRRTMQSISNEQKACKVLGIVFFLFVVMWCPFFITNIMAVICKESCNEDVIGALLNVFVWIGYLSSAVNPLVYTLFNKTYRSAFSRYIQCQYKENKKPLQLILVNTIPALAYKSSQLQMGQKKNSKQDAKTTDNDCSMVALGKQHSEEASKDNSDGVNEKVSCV
T4 sequence (P23975 whole entry, the tested form may be a part): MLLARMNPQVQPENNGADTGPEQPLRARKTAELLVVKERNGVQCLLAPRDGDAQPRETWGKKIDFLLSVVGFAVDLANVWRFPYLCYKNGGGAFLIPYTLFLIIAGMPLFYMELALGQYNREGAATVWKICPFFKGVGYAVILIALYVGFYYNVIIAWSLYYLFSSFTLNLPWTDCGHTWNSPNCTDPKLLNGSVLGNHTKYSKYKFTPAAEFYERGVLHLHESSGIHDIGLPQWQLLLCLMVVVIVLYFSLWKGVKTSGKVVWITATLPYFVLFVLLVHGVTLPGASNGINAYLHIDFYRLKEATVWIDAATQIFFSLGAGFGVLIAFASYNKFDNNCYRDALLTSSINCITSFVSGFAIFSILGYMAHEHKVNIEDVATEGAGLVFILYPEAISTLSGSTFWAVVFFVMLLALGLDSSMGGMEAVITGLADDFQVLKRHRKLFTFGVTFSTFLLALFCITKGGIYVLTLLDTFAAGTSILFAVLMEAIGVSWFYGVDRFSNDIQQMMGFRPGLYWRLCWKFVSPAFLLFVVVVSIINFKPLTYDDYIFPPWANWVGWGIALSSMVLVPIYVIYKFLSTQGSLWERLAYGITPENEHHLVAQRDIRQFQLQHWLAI
T3 sequence (P31645 whole entry, the tested form may be a part): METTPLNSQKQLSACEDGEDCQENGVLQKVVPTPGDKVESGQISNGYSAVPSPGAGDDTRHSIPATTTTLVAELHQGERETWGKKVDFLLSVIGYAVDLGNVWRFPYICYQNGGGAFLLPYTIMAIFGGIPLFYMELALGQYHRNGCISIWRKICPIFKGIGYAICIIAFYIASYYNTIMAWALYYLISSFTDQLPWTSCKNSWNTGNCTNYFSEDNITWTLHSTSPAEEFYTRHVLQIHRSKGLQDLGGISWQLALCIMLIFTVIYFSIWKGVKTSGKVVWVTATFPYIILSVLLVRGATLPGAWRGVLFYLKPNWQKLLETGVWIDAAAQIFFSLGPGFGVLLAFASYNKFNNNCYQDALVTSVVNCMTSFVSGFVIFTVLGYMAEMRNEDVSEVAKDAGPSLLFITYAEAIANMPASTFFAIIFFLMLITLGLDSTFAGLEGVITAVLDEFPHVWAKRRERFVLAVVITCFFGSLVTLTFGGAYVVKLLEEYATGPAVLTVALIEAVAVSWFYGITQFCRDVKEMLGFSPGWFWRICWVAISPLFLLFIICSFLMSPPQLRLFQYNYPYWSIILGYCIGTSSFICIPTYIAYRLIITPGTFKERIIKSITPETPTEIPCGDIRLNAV
T2 sequence (Q05940 whole entry): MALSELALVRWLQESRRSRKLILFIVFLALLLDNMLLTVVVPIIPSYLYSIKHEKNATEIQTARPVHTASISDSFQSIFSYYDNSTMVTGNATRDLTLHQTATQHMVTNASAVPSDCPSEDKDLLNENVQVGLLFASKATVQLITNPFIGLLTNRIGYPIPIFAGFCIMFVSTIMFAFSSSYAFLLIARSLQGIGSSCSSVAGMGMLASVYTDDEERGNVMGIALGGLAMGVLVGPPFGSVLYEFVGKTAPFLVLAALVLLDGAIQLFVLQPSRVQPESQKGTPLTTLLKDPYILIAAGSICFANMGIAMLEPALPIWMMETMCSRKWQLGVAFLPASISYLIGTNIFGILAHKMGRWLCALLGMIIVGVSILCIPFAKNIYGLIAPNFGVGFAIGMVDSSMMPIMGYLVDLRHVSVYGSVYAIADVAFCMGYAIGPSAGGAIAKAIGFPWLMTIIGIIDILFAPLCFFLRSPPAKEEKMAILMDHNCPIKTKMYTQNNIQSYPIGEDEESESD
T5 sequence (Q01959 whole entry): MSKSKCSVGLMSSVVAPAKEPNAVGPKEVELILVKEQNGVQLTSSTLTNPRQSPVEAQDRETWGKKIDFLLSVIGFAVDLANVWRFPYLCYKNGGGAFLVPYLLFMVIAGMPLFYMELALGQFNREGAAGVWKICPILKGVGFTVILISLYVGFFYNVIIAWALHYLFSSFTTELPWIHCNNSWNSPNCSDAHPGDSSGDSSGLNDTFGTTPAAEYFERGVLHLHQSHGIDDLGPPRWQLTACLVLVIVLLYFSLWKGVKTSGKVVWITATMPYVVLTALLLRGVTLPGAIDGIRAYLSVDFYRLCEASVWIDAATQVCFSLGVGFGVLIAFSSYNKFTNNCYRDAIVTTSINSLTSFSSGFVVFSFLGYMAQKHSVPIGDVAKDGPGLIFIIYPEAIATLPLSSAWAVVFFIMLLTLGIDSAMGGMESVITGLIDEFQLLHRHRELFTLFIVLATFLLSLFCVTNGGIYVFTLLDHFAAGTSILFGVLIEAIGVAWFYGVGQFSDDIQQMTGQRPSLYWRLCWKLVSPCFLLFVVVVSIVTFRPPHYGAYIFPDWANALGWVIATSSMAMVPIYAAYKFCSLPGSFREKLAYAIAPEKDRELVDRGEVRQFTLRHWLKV
hSigma1 receptor, sequence (Q99720 whole entry): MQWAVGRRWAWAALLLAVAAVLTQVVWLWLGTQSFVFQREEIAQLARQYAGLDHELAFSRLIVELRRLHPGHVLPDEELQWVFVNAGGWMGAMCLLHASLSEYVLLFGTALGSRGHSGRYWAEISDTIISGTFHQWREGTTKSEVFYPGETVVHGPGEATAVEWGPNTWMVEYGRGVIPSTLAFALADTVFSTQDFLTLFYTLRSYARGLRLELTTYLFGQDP

| Compound | h5-HT2A agonist activity, inositol monophosphate [1] | h5-HT2A Inhibition of 5-HT-stimulated IP-1 formation % maximum inhibition ± sem [3] [%] | Ki [4] [µM] | IC50 [5] [µM] | % maximum release ± sem, hSERT [3H]5-HT [6] [%] | EC50 [6] [µM] | time of peak [3H]5-HT release after addition of drug [6] | EC50 [7] [µM] | time of peak [3H]NE release after addition of drug [7] [min] | % maximum release ± sem, hNET [3H]NE [7] [%] | IC50 [8] [µM] | EC50 [9] [µM] | Emax [9] [%] | Ki [10] [µM] | IC50 [11] [µM] | Ki [12] [µM] | Ki [13] [µM] | Ki [14] [µM] | Ki [15] [µM] | IC50 [18] [µM] | further results |
| --- | --- | --- | --- | --- | --- | --- | --- | --- | --- | --- | --- | --- | --- | --- | --- | --- | --- | --- | --- | --- | --- |
| CCN(CC)C(=O)[C@@H]1C=C2c3cccc4[nH]cc(c34)C[C@H]2N(C)C1 [LSD, lysergic acid diethylamide] | full agonists with potencies in the low nanomolar range |  |  |  |  |  |  |  |  |  |  |  |  |  |  |  |  |  |  |  |  |
| CNC(C)C(=O)c1ccc2c(c1)OCO2 (stereo not shown) [Methylone, 3,4-methylenedioxy-N-methylcathinone] |  | 84.7 ± 5.2 | > 1000 | 1.92 ± 0.35 | 78 ± 18 | 6.7 ± 2.78 | about 6 min | 0.426 ± 0.067 | 8 to 16 | 122 ± 32 | 0.343 ± 0.024 | 143 ± 32 | 47 | 25.5 ± 7.7 | > 100 | 5.02 ± 0.29 | 95.5 ± 4.3 | 63.3 ± 0.98 | 16.5 ± 4.9 | 0.234 ± 0.055 | Ki [2]: 48.5 ± 8 µM; IC50 [3]: 159 ± 11 µM; ratio of binding Ki to uptake IC50, hSERT ([5]; [125I]RTI-55 Ki / [3H]5-HT uptake IC50): 50; ratio of binding Ki to uptake IC50, hDAT ([8]; [125I]RTI-55 Ki / [3H]DA uptake IC50): 15; postmortem blood concentration [16]: 0.06 to 3.3 mg/L; postmortem blood concentration (molar) [16]: 0.25 to 14 µM; Ki [17]: 10.6 ± 1.8 µM; ratio of binding Ki to uptake IC50, hNET ([18]; [125I]RTI-55 Ki / [3H]NE uptake IC50): 71; IC50 [19]: > 1000 µM; h5-HT2C Inhibition of 5-HT-stimulated IP-1 formation % maximum inhibition ± sem [19]: 28.0 ± 7.5%; EC50 [20]: > 100 µM; Release of [3H]NE % maximum release ± sem or range, hVMAT2 [20]: 21.8 ± 8.5%; Release of [3H]NE % maximum release ± sem or range, hVMAT2 ([20]; listed as methylone): less than 35%; % maximum release ± sem, hDAT [3H]DA [21]: 41 ± 12%; EC50 [21]: 11.8 ± 5.6 µM; time of peak/maximal [3H]DA release after addition of drug [21]: ≤ 6 min; fold less potent than METH to induce [3H]DA release ([21]; EC50 compared to METH): 30 fold; % maximum release ± sem, hDAT [3H]DA ([21]; listed as methylone): 41% |
| CC(C)(C)[C@]1(O)CCN2C[C@H]3c4ccccc4CCc4cccc(c43)[C@@H]2C1 [butaclamol] |  |  |  |  |  |  |  |  |  |  |  |  |  |  |  |  |  |  |  |  | affinity for the [3H]YM-09151-2 binding site, DA D2 receptor [22]: subnanomolar |
| CNC(C)C(=O)c1ccc(C)cc1 (stereo not shown) [Mephedrone, 4-methyl-N-methylcathinone] |  | 98.7 ± 1.3 | > 1000 | 0.51 ± 0.15 | 53 ± 13 | 11.9 ± 4.9 | about 6 min | 0.41 ± 0.13 | 8 to 16 | 152 ± 32 | 0.098 ± 0.027 | 126 ± 29 | 44 | 7.8 ± 2 | 116 ± 8.8 | 4.8 ± 0.75 | 21 ± 4.8 | > 91 | 11.8 ± 4 | 0.0536 ± 0.0087 | postmortem blood concentration [16]: 0.06 to 3.3 mg/L; postmortem blood concentration (molar) [16]: 0.25 to 14 µM; Ki [17]: 9.1 ± 2.1 µM; IC50 [19]: > 440 µM; h5-HT2C Inhibition of 5-HT-stimulated IP-1 formation % maximum inhibition ± sem [19]: 66.3 ± 8.4%; EC50 [20]: 66 ± 23 µM; Release of [3H]NE % maximum release ± sem or range, hVMAT2 [20]: 33.1 ± 1.9%; % maximum release ± sem, hDAT [3H]DA [21]: 68 ± 11%; EC50 [21]: 1.19 ± 0.34 µM; time of peak/maximal [3H]DA release after addition of drug [21]: 8 min |
| OC1(c2ccc(Cl)cc2)c2ccccc2C2=NCCN21 (stereo not shown) [Mazindol, reference compound] |  |  |  | 0.0307 ± 0.0055 |  |  |  |  |  |  |  |  |  |  |  |  | 0.026 ± 0.012 |  | 0.0054 ± 0.0016 | 0.00185 ± 0.00049 |  |
| NCCc1c[nH]c2ccc(O)cc12 [5-HT, 5-hydroxy-tryptamine] | full agonists with potencies in the low nanomolar range |  |  |  |  |  |  |  |  |  |  |  |  |  |  |  |  |  |  |  |  |
